Experiments:
[1] = target: T1, D3 receptor (Homo sapiens, UniProt P35462); settings: read-out: Ki±SEM; binding data previously reported; ref Newman et al. (2003); cited from earlier work
[2] = target: T1, D3 receptor; test: [3H]methylspiperone saturation binding; settings: 1 μM sulpiride (Fig. 6)
[3] = target: D3 dopamine receptor (Homo sapiens, UniProt P35462); test: β-arrestin recruitment assay; type: cell-based
D3 dopamine receptor, sequence (P35462 whole entry): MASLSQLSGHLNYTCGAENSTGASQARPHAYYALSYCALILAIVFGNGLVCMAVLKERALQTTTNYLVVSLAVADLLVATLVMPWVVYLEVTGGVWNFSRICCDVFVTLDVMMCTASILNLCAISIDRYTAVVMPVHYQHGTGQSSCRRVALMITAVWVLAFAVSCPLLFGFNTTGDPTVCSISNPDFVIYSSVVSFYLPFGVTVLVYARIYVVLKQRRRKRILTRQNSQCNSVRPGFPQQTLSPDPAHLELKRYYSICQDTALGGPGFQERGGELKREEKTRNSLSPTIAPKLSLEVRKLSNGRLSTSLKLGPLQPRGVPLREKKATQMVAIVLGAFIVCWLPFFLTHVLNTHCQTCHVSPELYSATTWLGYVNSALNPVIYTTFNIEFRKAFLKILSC

T1 sequence (P35462 whole entry): as above

| Bmax of [3H]methylspiperone in presence of compound [2] | Hill slope of Schild plot ([3]; curve-shift of dopamine concentration response (Fig. 7), n=3–5, mean±SEM) | Hill slope of Schild plot ([3]; curve-shift of dopamine concentration response (Fig. 11)) | Structure (SMILES) | Ki [1] |
| --- | --- | --- | --- | --- |
| – | – | – | O=C(NCCCCN1CCN(c2cccc(Cl)c2Cl)CC1)c1ccc(-c2ccccn2)cc1 [CJB 090] | 0.6 ± 0.2 nM |
| 6,190 fmol/mg | 1.04±0.05 | 1.04±0.05 | CCN1CCCC1CNC(=O)c1cc(S(N)(=O)=O)ccc1OC (stereo not shown) [sulpiride] | – |

— PMC4449328 (European neuropsychopharmacology : the journal of the …, 2014)
